“And” between values parts separate entries of the source, which are not always exact repeats. Equal entries are not always repeated.
Conditions: Liquid, Rate of evaporation

OCCN(CCO)CCO [triethanolamine]
Conditions | vapor or sublimation pressure
365 K | 0.000835 kPa
375 K | 0.002129 kPa and 0.002041 kPa
385 K | 0.005005 kPa and 0.004526 kPa
395 K | 0.01093 kPa and 0.009521 kPa
400 K | 0.01404 kPa
405 K | 0.02229 kPa and 0.01908 kPa
410 K | 0.02726 kPa
415 K | 0.04274 kPa and 0.03658 kPa and 0.03733 kPa
420 K | 0.05078 kPa
425 K | 0.07739 kPa and 0.06729 kPa and 0.06993 kPa
430 K | 0.09108 kPa and 0.0987 kPa and 0.0881 kPa
435 K | 0.133 kPa and 0.1191 kPa and 0.1259 kPa
440 K | 0.1577 kPa and 0.1715 kPa and 0.1578 kPa
445 K | 0.2176 kPa and 0.2036 kPa and 0.2184 kPa
450 K | 0.2644 kPa and 0.2908 kPa and 0.2755 kPa
455 K | 0.3407 kPa and 0.3368 kPa and 0.3662 kPa
460 K | 0.4694 kPa [middle of 4 runs]
465 K | 0.5116 kPa and 0.5424 kPa and 0.5946 kPa
470 K | 0.7812 kPa and 0.7818 kPa
475 K | 0.9374 kPa
480 K | 1.165 kPa and 1.242 kPa and 1.275 kPa
490 K | 1.936 kPa and 2.038 kPa
500 K | 3.196 kPa
510 K | 4.926 kPa
515 K | 6.077 kPa

Reference: the NIST ThermoML archive (doi:10.1016/j.tca.2018.05.007)
